{
  "source": "patent US20250129093A1",
  "about": "“COMPOSITIONS AND METHODS RELATING TO ATP/P2X7R SIGNALING INHIBITION” (THE CHILDREN'S MEDICAL CENTER CORPORATION, priority 2022, published 2025)",
  "key": {"[1]": {"system": "P2X7R signaling through eATP", "assay": "BzATP-stimulated CD4+ T cells from human PBMCs, expression of Th2-related factors", "type": "cell-based", "details": "for inhibition of activation of P2X7R signaling through eATP (expression of Th2-related factors IL-4 and IRF4): human CD4+ T cells stimulated with benzoyl ATP (BzATP)", "from_the_text": "Peripheral blood mononuclear cell (PBMCs) were isolated from collected human blood samples and recovered CD4+ T cells were purified and treated with different compounds. In particular cells were activated upon stimulation with benzoyl ATP (BzATP) and treated with human P2X7R inhibitor CE-224,535, P2X7 receptor antagonist oATP and the 6 small molecules identified in the bioinformatics and HTVS approaches above."}, "[2]": {"system": "P2X7R−/− mice receiving a Bm12 heart", "assay": "Heart allograft survival in P2X7R-/- mice receiving a Bm12 heart", "type": "in vivo", "details": "Bm12 heart transplant, p=0.04", "from_the_text": "(§1) The P2X7R mutation rs3751143 is associated with the development of increased immunological events, particularly with the development of a HyperTh-17 syndrome, which is mainly characterized by an imbalance between T-helper cells which favors generation of Th-17 cells."}, "[3]": {"system": "CD4+ T cells obtained from individuals carrying the P2X7R mutation", "assay": "Th17 generation in vitro in CD4+ T cells from individuals carrying the P2X7R mutation", "type": "cell-based, human", "details": "inhibitor added to the cell culture, carriers of P2X7R mutation rs3751143", "from_the_text": "as §1"}, "C57BL6 (B6) mice": {"system": "C57BL6 (B6) mice", "assay": "Survival (longevity) of C57BL6 (B6) mice", "type": "in vivo", "details": "7.5 mg/Kg", "from_the_text": "Given that administration of P2X7R inhibitors is associated with a slow-down of metabolic processes within activated cells/tissues (9) and the effect of eATP in favoring cell senescence, it is contemplated herein that this mechanism could be responsible for promoting longevity and prolonging survival."}, "[4]": {"system": "P2X7R signaling through eATP", "details": "cells of individuals who do not carry the P2X7R mutation; cited from earlier work"}},
  "note": "“Also recorded” adds a separate entry of the source.",
  "data": [
    {"smiles": "O=C(O)c1ccccc1-c1ccccc1C(=O)Nc1cccc(-c2nc3ccccc3[nH]2)c1", "note": "[compound 6, 2′-[3-(1H-Benzoimidazol-2-yl)-phenylcarbamoyl]-biphenyl-2-carboxylic acid]", "values": [
      {"measurement": "inhibition of activation of P2X7R signaling through eATP (expression of Th2-related factors IL-4 and IRF4)", "setting": "[1]", "value": "significative ability to inhibit the activation of P2X7R signaling"}
    ]},
    {"smiles": "COc1ccc(/C=N\\Nc2cc(C)nc(NCc3ccccc3)n2)c(OC)c1", "note": "[Compound #5, Benzyl-{4-[N′-(2,4-dimethoxy-benzylidene)-hydrazino]-6-methyl-pyrimidin-2-yl}-amine]", "values": [
      {"measurement": "effect on the expression of Th2-related factors GATA3, IL-4 and IRF4", "setting": "[1]; PBMCs, FIG. 2, compared with CE-224,535 and oATP", "value": "effect comparable to that of human P2X7R inhibitor CE-224,535 and P2X7 receptor antagonist oATP"},
      {"measurement": "inhibition of activation of P2X7R signaling through eATP (expression of Th2-related factors IL-4 and IRF4)", "setting": "[1]", "value": "significative ability to inhibit the activation of P2X7R signaling"}
    ]},
    {"smiles": "OC(CNCc1ccccc1)COc1ccc(OCC(O)CNCc2ccccc2)cc1", "note": "(centres unmarked) [compound 3, 1-Benzylamino-3-[4-(3-benzylamino-2-hydroxy-propoxy)-phenoxy]-propan-2-ol]", "values": [
      {"measurement": "inhibition of activation of P2X7R signaling through eATP (expression of Th2-related factors IL-4 and IRF4)", "setting": "[1]", "value": "significative ability to inhibit the activation of P2X7R signaling"}
    ]},
    {"smiles": "Cc1ccccc1Nc1nc2nonc2nc1N/N=C\\c1cccc2ccccc12", "note": "[compound 4, [6-(N′-Naphthalen-1-ylmethylene-hydrazino)-[1,2,5]oxadiazolo[3,4-b]pyrazin-5-yl]-o-tolyl-amine]", "values": [
      {"measurement": "inhibition of activation of P2X7R signaling through eATP (expression of Th2-related factors IL-4 and IRF4)", "setting": "[1]", "value": "significative ability to inhibit the activation of P2X7R signaling"}
    ]},
    {"smiles": "Nc1ncnc2c1ncn2[C@@H](C=O)O[C@@H](C=O)COP(=O)(O)OP(=O)(O)OP(=O)(O)O", "note": "[oATP]", "values": [
      {"measurement": "allograft survival", "setting": "[2]", "value": "significantly prolongs allograft survival"},
      {"measurement": "Th17 generation", "setting": "[3]", "value": "at least partially inhibited; also recorded: partially abrogated"},
      {"measurement": "MST", "setting": "C57BL6 (B6) mice", "value": 19.5, "unit": "weeks"},
      {"measurement": "treated animals alive", "setting": "C57BL6 (B6) mice; at 17 weeks", "value": 60, "unit": "%"},
      {"measurement": "survival as compared to untreated controls", "setting": "C57BL6 (B6) mice; p=0.01, 7.5 mg/kg", "value": "significantly prolongs survival; also recorded: increased survival"},
      {"measurement": "neutralizing activation of P2X7R signaling through eATP", "setting": "[4]", "value": "capable of neutralizing activation of P2X7R signaling"}
    ]}
  ]
}
